Laboratory results as given in patent US12685735B2 (Foghorn Therapeutics Inc., priority 2020, dated 2026).
Where two headings read alike, the source gives them in different places.

Assays:
[1] = biological target: BRM (Homo sapiens, UniProt P51531); assay: ATPase catalytic activity assay of BRM (ADP-Glo); type: biochemical; conditions: for IC50: read-out: BRM IC50 (μM)*
Summary of the method: (§1)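 ATPase activity of BRG-1 or BRM was read by ADP-Glo. Residual ATP was depleted (40 min, room temperature), then ADP was converted to ATP (60 min, room temperature) and measured as luciferase luminescence.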

[2] = biological target: BRG-1 (Homo sapiens, UniProt P51532); assay: ATPase catalytic activity assay of BRG-1 (ADP-Glo); type: biochemical; conditions: ATPase catalytic activity, ADP-Glo; for IC50: read-out: BRG1 IC50 (μM)*; for Emax: read-out: BRG1 Max % Inhibition
Summary of the method: as §1

Sequence of BRM (P51531 whole entry): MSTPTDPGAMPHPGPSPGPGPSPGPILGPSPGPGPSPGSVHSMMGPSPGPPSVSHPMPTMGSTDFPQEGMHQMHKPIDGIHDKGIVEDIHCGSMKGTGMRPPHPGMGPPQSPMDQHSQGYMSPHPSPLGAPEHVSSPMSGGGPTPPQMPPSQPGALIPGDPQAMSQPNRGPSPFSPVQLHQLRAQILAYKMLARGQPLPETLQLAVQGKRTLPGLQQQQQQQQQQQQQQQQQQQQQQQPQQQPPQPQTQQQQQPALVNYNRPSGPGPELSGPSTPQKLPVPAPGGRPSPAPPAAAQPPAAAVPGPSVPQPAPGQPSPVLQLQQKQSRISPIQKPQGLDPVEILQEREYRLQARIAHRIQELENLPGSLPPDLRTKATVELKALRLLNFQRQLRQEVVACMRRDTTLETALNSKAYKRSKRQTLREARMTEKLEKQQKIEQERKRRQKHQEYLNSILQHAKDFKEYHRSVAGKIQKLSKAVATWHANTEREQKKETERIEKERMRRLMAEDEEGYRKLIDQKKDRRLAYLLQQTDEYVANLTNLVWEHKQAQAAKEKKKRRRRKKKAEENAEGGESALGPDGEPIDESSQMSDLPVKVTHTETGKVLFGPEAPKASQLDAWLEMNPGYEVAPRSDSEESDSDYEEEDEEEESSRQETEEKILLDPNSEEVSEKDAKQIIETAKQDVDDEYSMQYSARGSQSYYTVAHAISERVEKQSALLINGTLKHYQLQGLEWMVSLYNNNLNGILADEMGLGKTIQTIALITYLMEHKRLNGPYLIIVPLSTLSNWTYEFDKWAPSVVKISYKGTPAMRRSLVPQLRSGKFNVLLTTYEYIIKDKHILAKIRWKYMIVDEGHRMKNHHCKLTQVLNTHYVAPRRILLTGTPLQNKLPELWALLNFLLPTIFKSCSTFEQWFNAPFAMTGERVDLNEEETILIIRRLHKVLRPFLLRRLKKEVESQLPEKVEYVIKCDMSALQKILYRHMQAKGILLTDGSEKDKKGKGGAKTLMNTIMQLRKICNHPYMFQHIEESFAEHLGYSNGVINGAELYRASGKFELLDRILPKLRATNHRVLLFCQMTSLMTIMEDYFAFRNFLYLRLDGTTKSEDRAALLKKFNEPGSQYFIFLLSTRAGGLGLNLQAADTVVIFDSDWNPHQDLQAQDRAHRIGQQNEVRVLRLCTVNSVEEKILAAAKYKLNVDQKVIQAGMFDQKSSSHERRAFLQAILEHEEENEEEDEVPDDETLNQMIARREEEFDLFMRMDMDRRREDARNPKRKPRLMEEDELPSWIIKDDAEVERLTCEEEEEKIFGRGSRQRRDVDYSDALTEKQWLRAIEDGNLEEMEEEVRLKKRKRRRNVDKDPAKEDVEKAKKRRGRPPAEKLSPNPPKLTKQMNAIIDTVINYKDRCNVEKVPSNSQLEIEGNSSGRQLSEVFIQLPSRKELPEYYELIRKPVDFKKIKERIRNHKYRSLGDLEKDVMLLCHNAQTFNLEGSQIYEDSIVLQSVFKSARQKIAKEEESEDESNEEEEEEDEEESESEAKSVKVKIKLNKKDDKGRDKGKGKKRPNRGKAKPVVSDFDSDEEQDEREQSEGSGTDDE
Sequence of BRG-1 (P51532 whole entry): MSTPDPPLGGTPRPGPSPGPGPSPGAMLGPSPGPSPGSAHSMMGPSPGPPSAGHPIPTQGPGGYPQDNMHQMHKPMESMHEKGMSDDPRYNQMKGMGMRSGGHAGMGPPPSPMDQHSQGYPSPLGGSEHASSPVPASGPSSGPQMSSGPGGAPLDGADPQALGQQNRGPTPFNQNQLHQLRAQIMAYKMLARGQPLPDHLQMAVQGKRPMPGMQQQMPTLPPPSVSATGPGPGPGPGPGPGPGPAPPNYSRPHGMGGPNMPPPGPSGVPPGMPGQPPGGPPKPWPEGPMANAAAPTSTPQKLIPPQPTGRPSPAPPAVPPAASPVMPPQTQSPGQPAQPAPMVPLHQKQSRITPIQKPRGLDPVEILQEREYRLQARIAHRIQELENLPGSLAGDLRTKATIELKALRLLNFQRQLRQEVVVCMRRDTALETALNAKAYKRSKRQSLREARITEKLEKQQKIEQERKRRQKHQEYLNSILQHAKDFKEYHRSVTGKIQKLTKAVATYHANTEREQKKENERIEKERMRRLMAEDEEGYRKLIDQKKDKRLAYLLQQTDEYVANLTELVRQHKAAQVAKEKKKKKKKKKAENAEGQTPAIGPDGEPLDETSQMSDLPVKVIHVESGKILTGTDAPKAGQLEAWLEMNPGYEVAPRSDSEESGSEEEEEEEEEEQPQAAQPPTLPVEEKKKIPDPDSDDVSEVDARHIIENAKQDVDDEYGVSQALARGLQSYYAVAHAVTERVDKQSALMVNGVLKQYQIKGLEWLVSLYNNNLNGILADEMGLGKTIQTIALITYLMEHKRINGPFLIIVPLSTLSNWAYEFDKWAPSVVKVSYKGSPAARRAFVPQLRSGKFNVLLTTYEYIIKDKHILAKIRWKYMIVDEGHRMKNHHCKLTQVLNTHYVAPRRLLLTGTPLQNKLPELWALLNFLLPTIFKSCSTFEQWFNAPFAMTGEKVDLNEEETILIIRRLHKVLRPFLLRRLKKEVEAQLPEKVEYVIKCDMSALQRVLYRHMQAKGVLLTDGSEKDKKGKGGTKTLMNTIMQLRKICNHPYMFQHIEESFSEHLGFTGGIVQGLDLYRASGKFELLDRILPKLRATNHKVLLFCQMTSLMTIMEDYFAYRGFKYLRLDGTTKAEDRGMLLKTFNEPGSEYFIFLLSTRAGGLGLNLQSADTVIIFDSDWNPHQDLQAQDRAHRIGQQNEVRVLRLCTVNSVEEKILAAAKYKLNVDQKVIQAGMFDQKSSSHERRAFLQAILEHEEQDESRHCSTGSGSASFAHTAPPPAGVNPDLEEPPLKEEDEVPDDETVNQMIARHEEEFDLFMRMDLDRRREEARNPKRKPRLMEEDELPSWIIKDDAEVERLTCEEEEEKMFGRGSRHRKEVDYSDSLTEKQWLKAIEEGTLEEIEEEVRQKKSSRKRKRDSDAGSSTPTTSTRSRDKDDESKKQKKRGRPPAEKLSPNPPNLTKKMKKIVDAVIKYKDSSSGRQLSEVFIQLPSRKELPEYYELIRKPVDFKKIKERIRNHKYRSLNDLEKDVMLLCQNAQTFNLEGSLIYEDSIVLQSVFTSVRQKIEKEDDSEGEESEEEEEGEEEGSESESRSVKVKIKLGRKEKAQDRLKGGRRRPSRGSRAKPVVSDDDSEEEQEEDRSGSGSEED

| BRM Max % Inhibition [1] [%] | IC50 [1] [µM] | IC50 [2] [µM] | Emax [2] [%] | BRM Max % Inhibition ([1]; 30 nM BRM, 400 μM ATP) [%] | IC50 ([1]; 30 nM BRM, 400 μM ATP) [µM] | IC50 ([2]; 30 nM BRG-1, 400 μM ATP) [µM] | Emax ([2]; 30 nM BRG-1, 400 μM ATP) [%] | BRG1 Max % Inhibition [2] [%] | Compound |
| --- | --- | --- | --- | --- | --- | --- | --- | --- | --- |
| >90 | 0.1 to 1 | > 5 | > 50 |  |  |  |  |  | Cc1cc(-c2cccc(-c3csc(NC(=O)CNC(=O)c4ccc5c(c4)[C@@](C)(CO)CCC5)n3)n2)ncn1 [Compound 207, (S)-8-(hydroxymethyl)-8-methyl-N-(2-((4-(6-(6-methylpyrimidin-4-yl)pyridin-2-yl)thiazol-2-yl)amino)-2-oxoethyl)-5,6,7,8-tetrahydronaphthalene-2-carboxamide] |
|  |  |  |  | >95 | < 0.1 | 0.1 to 1 | > 95 |  | Cc1cncc(-c2cccc(-c3csc(NC(=O)CNC(=O)c4ccc5c(c4)C(C)(CO)CC5)n3)c2)n1 (stereo in doubt) [Compound 432, (S)-3-(hydroxymethyl)-3-methyl-N-(2-((4-(3-(6-methylpyrazin-2-yl)phenyl)thiazol-2-yl)amino)-2-oxoethyl)-2,3-dihydro-1H-indene-5-carboxamide] |
| >70 | 0.1 to 1 | > 5 | > 30 |  |  |  |  |  | C[C@@H]1CN(c2cccc(-c3csc(NC(=O)CNC(=O)c4cccc5c4OCC[C@]5(C)C#N)n3)c2)C[C@H](C)O1 [Compound 148, (S)-4-cyano-N-(2-((4-(3-((cis)-2,6-dimethylmorpholino)phenyl)thiazol-2-yl)amino)-2-oxoethyl)-4-methylchroman-8-carboxamide] |
| >95 | < 0.1 | 0.1 to 1 | > 95 |  |  |  |  |  | C[C@@]1(C#N)COCc2ccc(C(=O)NCC(=O)Nc3nc(-c4ccccc4)cs3)cc21 [Compound 323, (R)-4-cyano-4-methyl-N-(2-oxo-2-((4-phenylthiazol-2-yl)amino)ethyl)isochromane-6-carboxamide] |
| >70 | 1 to 5 | > 5 | > 30 |  |  |  |  |  | Cn1ccc(-c2cccc(-c3csc(NC(=O)CNC(=O)c4ccc5c(c4)[C@](C)(CO)CC5)n3)n2)n1 [Compound 265, (3R)-3-(hydroxymethyl)-3-methyl-N-[2-[[4-[6-(1-methylpyrazol-3-yl)-2-pyridyl]thiazol-2-yl]amino]-2-oxo-ethyl]indane-5-carboxamide] |
| >50 | 1 to 5 | > 5 |  |  |  |  |  | <30 | C[C@]1(CO)CCc2ccc(C(=O)NCC(=O)Nc3nc(-c4ccn5ccnc5c4)cs3)cc21 [Compound 259, (S)-3-(hydroxymethyl)-N-(2-((4-(imidazo[1,2-a]pyridin-7-yl)thiazol-2-yl)amino)-2-oxoethyl)-3-methyl-2,3-dihydro-1H-indene-5-carboxamide] |
| >95 | 0.1 to 1 | 1 to 5 | > 70 |  |  |  |  |  | C[C@]1(CO)CCc2c(C(=O)NCC(=O)Nc3nc(-c4cccc(-c5ccncc5)c4)cs3)cccc21 [Compound 226, (S)-1-(hydroxymethyl)-1-methyl-N-(2-oxo-2-((4-(3-(pyridin-4-yl)phenyl)thiazol-2-yl)amino)ethyl)-2,3-dihydro-1H-indene-4-carboxamide] |
| >90 | 0.1 to 1 | 1 to 5 | > 60 |  |  |  |  |  | Cn1cnc2ccc(-c3csc(NC(=O)CNC(=O)c4ccc5c(c4)[C@](C)(CO)CC5)n3)cc21 [Compound 175, (R)-3-(hydroxymethyl)-3-methyl-N-(2-((4-(1-methyl-1H-benzo[d]imidazol-6-yl)thiazol-2-yl)amino)-2-oxoethyl)-2,3-dihydro-1H-indene-5-carboxamide] |
| >95 | < 0.1 | 0.1 to 1 | > 95 |  |  |  |  |  | C[C@@H]1CN(c2cccc(-c3csc(NC(=O)CNC(=O)c4ccc5c(c4)C(O)(C(F)F)COC5)n3)c2)C[C@H](C)O1 (stereo partly drawn) [Compound 326, 4-(difluoromethyl)-N-(2-((4-(3-((cis)-2,6-dimethylmorpholino)phenyl)thiazol-2-yl)amino)-2-oxoethyl)-4-hydroxyisochromane-6-carboxamide] |
